Source: patent EP4722219A1 (Gan & Lee Pharmaceuticals Co., Ltd., priority 2023, dated 2024)
Where a chain is given by its changes, count along the chain named. Like-named read-outs stand apart in the source and are kept apart here.

Experiments:
CRBN protein = CRBN protein (Homo sapiens, UniProt Q96SW2); test: Binding activity to E3 ubiquitin ligase CRBN (HTRF competitive binding kit, Thalidomide-Red)
From the text: Binding activity of the E3 ligase inhibitor disclosed in the present invention to E3 ubiquitin ligase CRBN
CRBN binding activity test kit (CEREBLON BINDING KITS (PE, 64BD CRBN PEG).
The detection is based on homogeneous time-resolved fluorescence (HTRF) technology.
This kit uses a europium-labeled GST antibody (GST Eu Cryptate Antibody) as the donor and XL665-labeled thalidomide (Thalidomide-Red reagent) as the receptor. The donor binds to the GST-tagged CRBN protein.
The donor and receptor were each diluted 50-fold using the buffer provided in the kit (PROTAC binding buffer 1). The CRBN protein was diluted 45-fold. An 8mM solution of the compound disclosed herein was diluted 10-fold using the diluent provided in the kit (1X diluent), followed by 7 successive 5-fold serial dilutions of the resulting solution.
The ratio of the acceptor and donor emission signals was calculated for each individual well.
IC50 values was calculated based on compound concentration, Ratio, and coefficient of variation using GraphPad Prism.

LNCaP cells = test: Inhibition of LNCaP cell proliferation (WST-8); type: cell-based; details: Homo sapiens, LNCaP FGC cells, 96 hours
Method: The inhibitory activity of compounds disclosed in the present invention on LNCaP cell proliferation
The cells were cultured overnight in a 37°C, 5% CO2 cell incubator. […] The final concentration of the compound was 9 concentration points of 5-fold serial dilution starting from 10 µM. […] The cells were cultured in a cell culture incubator at 37°C and 5% CO2 for 96 hours. On the sixth day, the 96-well cell culture plate was removed, and 1/10 volume of WST-8 (Beytime, C0040) reagent was added to each well. The absorbance at 450 nm was detected using a microplate reader (TECAN, F50).

VCaP cells = test: Inhibition of VCaP cell proliferation (WST-8); type: cell-based; details: Homo sapiens, 168 hours
Method: On the first day of the experiment, VCaP cells were seeded at a density of 15,000 cells/well in a 96-well plate using DMEM medium containing 10% fetal bovine serum, with 100µL of cell suspension per well, and cultured overnight in a cell incubator at 37°C and 5% CO2. On the second day, 100µL of the compound of the present invention and the positive control ARV-110 (source: Anaiji) prepared in culture medium at different concentrations were added to each well. The final concentration of the compound was 9 concentration points of 5-fold serial dilution starting from 10 µM. […] On the ninth day, the 96-well cell culture plate was removed and 1/10 volume of WST-8 (Beytime, C0040) reagent was added to each well. The absorbance at 450nm was measured using a microplate reader (TECAN, F50).

AR protein [1] = molecular target: T1, AR protein (Homo sapiens, UniProt P10275); test: AR protein degradation in VCaP cells (Western blot); type: cell-based; details: 8h
T1 construct: host or cells: VCaP
T1 sequence (P10275 1-920): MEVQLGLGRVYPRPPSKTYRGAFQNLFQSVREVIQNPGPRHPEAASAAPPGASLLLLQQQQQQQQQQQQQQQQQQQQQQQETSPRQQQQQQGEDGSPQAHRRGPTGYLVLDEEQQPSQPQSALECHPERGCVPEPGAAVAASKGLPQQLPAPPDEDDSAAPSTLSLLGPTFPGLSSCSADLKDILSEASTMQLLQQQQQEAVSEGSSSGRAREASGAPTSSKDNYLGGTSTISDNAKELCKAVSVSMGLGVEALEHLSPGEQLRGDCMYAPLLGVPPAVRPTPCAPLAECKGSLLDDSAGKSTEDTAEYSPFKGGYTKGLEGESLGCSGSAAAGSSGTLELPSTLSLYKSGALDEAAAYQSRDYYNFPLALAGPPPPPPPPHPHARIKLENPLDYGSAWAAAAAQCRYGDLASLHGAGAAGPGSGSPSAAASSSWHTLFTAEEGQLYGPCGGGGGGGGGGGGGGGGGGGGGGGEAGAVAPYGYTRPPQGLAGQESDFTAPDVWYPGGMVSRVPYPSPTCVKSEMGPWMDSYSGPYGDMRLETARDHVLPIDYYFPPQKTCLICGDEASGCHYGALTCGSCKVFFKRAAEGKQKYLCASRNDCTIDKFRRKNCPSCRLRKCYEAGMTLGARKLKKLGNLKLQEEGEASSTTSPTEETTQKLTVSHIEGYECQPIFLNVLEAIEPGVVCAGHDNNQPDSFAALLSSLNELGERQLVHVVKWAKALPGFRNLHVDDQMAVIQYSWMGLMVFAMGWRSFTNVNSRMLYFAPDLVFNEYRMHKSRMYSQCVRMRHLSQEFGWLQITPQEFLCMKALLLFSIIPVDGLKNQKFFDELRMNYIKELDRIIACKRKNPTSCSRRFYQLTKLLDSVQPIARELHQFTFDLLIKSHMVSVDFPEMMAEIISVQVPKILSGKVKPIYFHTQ
Method: The degradation activity of the compounds disclosed in the present invention on AR protein in VCaP cells (cell source: ATCC)
The AR-positive human prostate cancer cells VCaP cultured in DMEM (GiBco catalog number 11995-065) containing 10% FBS (Hyclone catalog number SH30406.05) was inoculated in a six-well microplate (Thermo catalog number 140675) at a concentration of 3×10^5 cells/ well. After being cultured overnight in a carbon dioxide incubator (ESCO), the prepared compound of the present invention and the positive control sample ARV-766 (Annaiji) solution of different concentrations were added at a volume of 1 µL/well to make the final concentrations of the compound and the positive control sample reach 5nM and 0.5nM, respectively. At the same time, the corresponding solvent control was set and cultured for 8h. After 8h of culture, the culture medium was removed, and the cells were washed with PBS. RIPA lysis buffer containing 1% Protease Inhibitor Cocktail was added. After lysis and centrifugation, a total protein extract was obtained, and the protein concentration in the extract was detected by BCA method. Protein electrophoresis was performed using SDS-PAGE, and then the protein was transferred to a PVDF (Millipore Sigma catalog number PSRP010R5) membrane at a constant voltage of 100V for 60min. The PVDF membrane was placed in a 5% milk powder 1×TBST solution and blocked at room temperature for 1h. The primary antibody solution (Anti-Androgen receptor, Cell Signaling Technology catalog number: 5153S; 1:2000 dilution) was prepared and was incubated at 4°C overnight. The primary antibody solution was discarded and the PVDF membrane was washed with 1×TBST for 5 minutes each time, for three times. The secondary antibody solution (Thermo catalog number SA5-35571; 1:7500 dilution) was prepared and was incubated at room temperature for 1 hour. The secondary antibody solution was discarded and the PVDF membrane was washed with 1×TBST for 5 minutes each time, for three times. A dual-color infrared laser imaging system (Licor catalog number Odyssey CLX) was used for Western membrane imaging. Image Studio software was used to analyze the grayscale of the bands. GAPDH protein bands were also detected for each sample as the reference. The AR protein degradation rate of the compound and the positive control sample was calculated based on the grayscale of the protein bands.
Table 7 Degradation rate of AR protein in VCaP cells by the compounds disclosed in the present invention

AR protein [2] = molecular target: T2, AR protein (Homo sapiens, UniProt P10275, T878A); test: AR protein degradation in LNCaP cells (Western blot); type: cell-based; details: 8 hours
T2 construct: host or cells: LNCaP FGC
T2 sequence (P10275 1-920 T878A): T1 sequence (P10275 1-920) with T878A
Procedure, shortened: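 LNCaP cells exposed to compound or solvent control for 8 h, lysed in RIPA, protein normalized by BCA. AR detected by SDS-PAGE/Western blot with infrared imaging; band grayscale normalized to GAPDH to calculate AR degradation rate.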

[3] = competition with XL665-labeled thalidomide for GST-tagged CRBN protein, HTRF, 3 hours at room temperature, read-out: IC50

SMILES	IC50 (CRBN protein; [3]) [nM]	IC50 (LNCaP cells) [µM]	IC50 (VCaP cells) [µM]	further results
O=C1CCC(N2Cc3c(ccc4c3OCC43CCC4(CCNCC4)CC3)C2=O)C(=O)N1 (stereo not shown) [Compound D8]				IC50 (CRBN protein): 560 nM
O=C1CC[C@H](NC(=O)c2cc3c(cc2F)OC2(CCNCC2)CC3)C(=O)N1 [Compound A5, (S)-N-(2,6-dioxopiperidin-3-yl)-7-fluoro-spiro[2,4'-piperidine]-6-carboxamide]				IC50 (CRBN protein): 20800 nM
CN(c1ccc2c(c1)OCC21CCNCC1)C1CCC(=O)NC1=O (stereo not shown) [Compound C15, 3-(Methyl(2H-spiro[benzofuran-3,4'-piperidine]-6-yl)amino)piperidine-2,6-dione]	720			
COc1cc(O[C@H]2C(C)(C)[C@H](NC(=O)c3ccc(N4CCC(CN5CCN6c7ccc(C(=O)N[C@H]8CCC(=O)NC8=O)cc7OC[C@H]6C5)CC4)cc3)C2(C)C)ccc1C#N [A-P-74, (R)-3-((1-(4-(((1R,3R)-3-(4-cyano-3-methoxyphenoxy)-2,2,4,4-tetramethylcyclobutyl)carbamoyl)phenyl)piperidin-4-yl)methyl)-N-((S)-2,6-dioxopiperidin-3-yl)-1,2,3,4,4a,5-hexahydrobenzo[b]pyrazi no[1,2-d][1,4]oxazine-8-carboxamide]		0.5	2.16	Degradation rate of AR protein in VCaP cells (AR protein [1]; 0.5 nM): 2%; Degradation rate of AR protein in VCaP cells (AR protein [1]; 5 nM): 70%
COc1cc(O[C@H]2C(C)(C)[C@H](NC(=O)c3ccc(N4CCC(CN5CCC6(CC5)COc5c6ccc(C(=O)N[C@H]6CCC(=O)NC6=O)c5OC)CC4)cc3)C2(C)C)ccc1C#N [A-P-78, 1'-((1-(4-(((1r,3r)-3-(4-cyano-3-methoxyphenoxy)-2,2,4,4-tetramethylcyclobutyl)carbamoyl)phenyl)piperidin-4-yl)methyl)-N-((S)-2,6-dioxopiperidin-3-yl)-7-methoxy-2H-spiro[benzofuran-3,4'-piperidine]-6-carboxamide]		50.7	> 10	Degradation of AR protein in LNCaP cells, 10 nM (%) (AR protein [2]): -2%; Degradation of AR protein in LNCaP cells, 100 nM (%) (AR protein [2]): 14%
CC1(CN2CCC3(CCc4cc(C(=O)N[C@H]5CCC(=O)NC5=O)c(F)cc4O3)CC2)CCN(c2ccc(C(=O)N[C@H]3C(C)(C)[C@H](Oc4ccc(C#N)c(Cl)c4)C3(C)C)cc2)CC1 [A-P-55]		0.95	1.05	Degradation of AR protein in LNCaP cells, 10 nM (%) (AR protein [2]): -15%; Degradation of AR protein in LNCaP cells, 100 nM (%) (AR protein [2]): 15%
COc1cc(O[C@H]2C(C)(C)[C@H](NC(=O)c3ccc(N4CCC(CN5CCN6c7cc(F)c(C(=O)N[C@H]8CCC(=O)NC8=O)cc7OC[C@H]6C5)CC4)cc3)C2(C)C)ccc1C#N [A-P-63]		0.24	0.39	Degradation of AR protein in LNCaP cells, 10 nM (%) (AR protein [2]): 27%; Degradation of AR protein in LNCaP cells, 100 nM (%) (AR protein [2]): 68%

Further lines, with some results ahead:

IC50 (CRBN protein; [3]) [nM]	SMILES	IC50 (LNCaP cells) [µM]	IC50 (VCaP cells) [µM]	further results
1850	CN(c1ccc2c(c1)COC[C@H]1CNCCN21)C1CCC(=O)NC1=O (stereo partly shown) [Compound C14]			
8390	O=C1CCC(Nc2ccc3c(c2)COC[C@H]2CNCCN32)C(=O)N1 (stereo partly shown) [Compound C13]			
60200	O=C1CC[C@H](NC(=O)c2ccc3c(c2)OC[C@H]2CNCCN32)C(=O)N1 [Compound B2]			
45100	O=C1CC[C@H](NC(=O)c2cc3c(cc2F)N2CCNC[C@@H]2CO3)C(=O)N1 [Compound B3, (R)-N-((S)-2,6-dioxyhesperidin-3-yl)-9-fluoro-1,2,3,4,4,4a,5-hexahydrobenzo[b]pyrazino[1,2-d][1,4]oxazine-8-carboxamide]			
52800	O=C1CC[C@H](NC(=O)c2cc3c(cc2F)OCC32CCNCC2)C(=O)N1 [Compound A3, (S)-N-(2,6-dioxopiperidin-3-yl)-6-fluoro-2H-spiro[benzofuran-3,4'-piperidine]-5-carboxamide]			
3380	O=C1CCC(Nc2ccc3c(c2)OCC2(CCNCC2)C3)C(=O)N1 (stereo not shown) [Compound C6, 3-(Spiro[benzopyran-3,4'-piperidine]-7-ylamino)piperidine-2,6-dione]			
